Source: patent US9283277B2, “Methods and compositions for the treatment of obesity” (Children's Medical Center Corporation, priority 2008, dated 2016)

Key:
[1] = tested on: PERK (Thr980) phosphorylation; test: Hypothalamic PERK (Thr980) phosphorylation in ob/ob mice; assay type: in vivo; details: vs vehicle
Protocol: Nine-week old lean wt and ob/ob mice were orally treated with either PBA (1 g/kg/day) or vehicle (VEH) for 26 days and PERK (Thr980) phosphorylation is examined in the hypothalamus extracts with direct immunoblotting. (B) Ten week-old wt lean and ob/ob mice were intraperitoneally injected with leptin (0.1 mg/kg) after six-hour starvation. Hypothalami were removed 30 minutes after the injections, and pStat3^Tyr705 and total Stat3 levels were examined. (C) Nine-week old lean wt and ob/ob mice were orally treated with PBA (1 g/kg/day) for 10 days. Following the pretreatment period, leptin-deficient ob/ob mice were either administered with VEH or with different doses of leptin through the intraperitoneal route. […]
(a) Hypothalamic PERK phosphorylation (Thr980) after 21 days of vehicle or TUDCA (150 mg/kg/day) treatment. […] Error bars are ±S.E.M., P values are determined by Student's t-test. […]
If the postulate that reduction of ER stress in the hypothalamus increases leptin sensitivity is true, chemical chaperones other than PBA should also create the same effect and sensitize the obese mice to leptin. […] For this purpose we treated ob/ob mice either with vehicle or TUDCA (150 mg/kg/day) for a period of 21 days and analyzed the hypothalamic PERK phosphorylation. […]

C57BL/6 wt-lean mice = test: TUDCA and leptin co-treatment in C57BL/6 wt-lean mice; assay type: in vivo; details: leptin 1 mg/kg/day, TUDCA 150 mg/kg/day, 30 days
Protocol: Following an initial acclimation period, eight week-old wt lean mice were treated with vehicle (VEH), Leptin (1 mg/kg/day) (L), TUDCA (150 mg/kg/day) (TUD) or leptin and TUDCA together for a period of 30 days. (a) Bodyweight (g), (b) % decrease in bodyweight, (c) Daily food intake (g) of the wt mice treated with VEH, LEP, TUD and TUD+LEP during the experimental period (n=4 in each group). Error bars are ±S.E.M., P values are determined by Student's t-test (*p<0.05, **p<0.01, ***p<0.001).
If the postulate that reduction of ER stress in the hypothalamus increases leptin sensitivity is true, chemical chaperones other than PBA should also create the same effect and sensitize the obese mice to leptin. TUDCA is a hydrophilic bile acid, which has a completely different structure than PBA, but has chemical chaperone activity in common^25. First, we investigated whether TUDCA can reduce ER stress in the hypothalamus of the ob/ob mice. For this purpose we treated ob/ob mice either with vehicle or TUDCA (150 mg/kg/day) for a period of 21 days and analyzed the hypothalamic PERK phosphorylation. […] To address this question we first pretreated the ob/ob mice with TUDCA (150 mg/kg/day) for 5 days and subsequently initiated leptin (1 mg/kg) treatment. […] Body weight of the ob/ob mice decreased further with leptin and TUDCA co-treatment and reached to 34.39±1.30 g from 50.55±1.14 g (Lep vs. TUD+Lep, p<0.001). […] Furthermore, to investigate the metabolic homeostasis in more detail, we placed the mice in metabolic cages. […] Heat generation was the same between the groups (FIG. 5j). Next, we analyzed the whole body fat composition by DEXA scan. […] Finally, analysis of lean mass has shown that none of the treatments lead to a significant change in this parameter ([…]). We additionally investigated the effect of TUDCA and leptin co-treatment on C57BL/6 wt-lean mice.

Row | Compound | PERK (Thr980) phosphorylation in hypothalamus ([1]; PBA 1 g/kg/day orally, 26 days) | hypothalamic PERK phosphorylation (PERK activity) ([1]; TUDCA 150 mg/kg/day, 21 days) | body weight (C57BL/6 wt-lean mice) | food intake (C57BL/6 wt-lean mice)
1 | O=C(O)CCCc1ccccc1 [PBA, 4-phenyl butyric acid] | significantly reduced |  |  | 
2 | C[C@H](CCC(=O)NCCS(=O)(=O)O)[C@H]1CC[C@H]2[C@@H]3[C@@H](O)C[C@@H]4C[C@H](O)CC[C@]4(C)[C@H]3CC[C@]12C [TUDCA, tauroursodeoxycholic acid] |  | down regulated | did not observe any significant changes | did not observe any significant changes
3 | leptin: adipocyte-derived hormone that suppresses appetite |  |  | did not observe any significant changes | did not observe any significant changes
